Peptide text beside a SMILES is read from it. * marks the point of attachment. Cbz = O=C(OCc1ccccc1)*
Columns and labels:
DLK [1] = experiment: Western blot for DLK in unstressed embryonic DRG neurons cultured with NGF, treated for three hours; format: cell-based, mouse; settings: DRGs +NGF, 3 hours; OA 200 nM, MG132 30 μM
Description: (§1) Dorsal root ganglia were dissected from E12.5 to E13.5 mouse embryos, trypsinized (except in the case of explants), and cultured in F12 medium containing N3 supplement, 40 mM glucose, and 25 ng/mL NGF on chamber slides coated with poly-d-lysine and laminin (BioCoat, BD). The day after plating, 3 μM arabinofuranoside (AraC, Sigma) was added to the medium, removed two days later, and the medium was replaced with N3/F12/NGF without AraC. For NGF withdrawal experiments, after 4 to 5 days in vitro, medium was replaced with medium containing no NGF and 25 μg/mL anti-NGF antibody (Genentech) for between 1 and 3 hours.
DRG cultures were lysed by incubation on ice for 30 min. in buffer containing 50 mM Tris pH 7.5, 150 mM NaCl, 5 mM EDTA, and 0.1% Triton X-100. HEK 293T cells were lysed by incubation on ice for 30 min. in radioimmunoprecipitation assay (RIPA) buffer. Retina and nerve tissue samples were lysed in RIPA buffer using a TissueLyser (Qiagen) with a 3 mm tungsten carbide bead (Qiagen) for 6 min. Unless otherwise noted, all lysis solutions contained Complete protease inhibitor cocktail and PhosSTOP phosphatase inhibitor cocktail (Roche). Protein concentrations of 293T and retina lysates were determined by BCA assay (Pierce). Samples were loaded on NuPAGE 4-12% Bis-Tris gels (Invitrogen) and subjected to standard immunoblotting procedures. Except where noted, gels blotted for DLK were run in MOPS buffer (Invitrogen). Due to the large size of Phr1, samples blotted for Phr1 were run on 3-8% Tris-Acetate gels (Invitrogen). Blots were visualized with chemiluminescence and exposure to film. For relative protein expression and molecular weight quantifications, blots were also visualized on a Chemidoc (Bio-Rad). Quantifications were performed in ImageLab (Bio-Rad). Protein expression was standardized to a loading control (actin or tubulin). Molecular weight was standardized to Precision Plus Protein WesternC Standards (Bio-Rad).

murine DLK = experiment: SILAC mass spectrometry of DLK phosphorylation sites in 293T cells expressing Flag-tagged DLK; format: cell-based, mouse; settings: WT DLK, okadaic acid 200 nM
Description: To identify functionally relevant phosphorylation sites on DLK, mass spectrometry in conjunction with stable isotope labeling by amino acids in cell culture (SILAC) was used. For these studies, 293T cells expressing FLAG-tagged DLK were cultured in SILAC media containing isotopically enriched (Heavy) versions of lysine (^13C6^15N2) and arginine (^13C6^15N4) or their unlabeled counterparts (Light). Four paired conditions (Light vs. Heavy) were established to dissect the effects of JNK and DLK activities on the overall abundance of DLK and the extent of DLK phosphorylation: 1) Wild-type (WT) DLK vs. DLK^S302A, 2) DLK^S302A vs. DLK^S302A co-expressed with a constitutively active JNK construct (Lei, K. et al. Molecular and cellular biology 22, 4929-4942 (2002)), 3) WT DLK vs. WT DLK with JNK inhibitor, and 4) WT DLK vs. WT DLK with okadaic acid (FIG. 5a).

DLK [2] = experiment: JNK3 siRNA knockdown in JNK2 knockout DRGs with NGF withdrawal, blot for DLK; format: cell-based, mouse; settings: JNK2 KO embryonic DRGs, compared to control siRNA
Description: as §1
For siRNA experiments, dissociated DRGs were transfected using the Amaxa nucleofection system (Lonza). JNK3 siRNA (sense 5′-ACATCGTAGTCAAGTCTGATTT-3′ (SEQ ID NO:10), antisense 5′-ATCAGACTTGACTACGATGTTT (SEQ ID NO:11)) was synthesized at Genentech (Kim, M. J. et al. Neuron 56, 488-502 (2007)). Control siRNA was ON-TARGETplus Non-targeting siRNA #1 from Dharmacon.
DRG cultures were lysed by incubation on ice for 30 min. in buffer containing 50 mM Tris pH 7.5, 150 mM NaCl, 5 mM EDTA, and 0.1% Triton X-100. […] Protein concentrations of 293T and retina lysates were determined by BCA assay (Pierce). […] For relative protein expression and molecular weight quantifications, blots were also visualized on a Chemidoc (Bio-Rad). Quantifications were performed in ImageLab (Bio-Rad). […]

DLK [3] = experiment: DLK expression in stable cell line with dox-inducible DLK construct treated with JNK inhibitors; format: cell-based; settings: inhibitors at 10 μM
Description: HEK 293T cells were lysed by incubation on ice for 30 min. in radioimmunoprecipitation assay (RIPA) buffer. […] Unless otherwise noted, all lysis solutions contained Complete protease inhibitor cocktail and PhosSTOP phosphatase inhibitor cocktail (Roche). Protein concentrations of 293T and retina lysates were determined by BCA assay (Pierce). Samples were loaded on NuPAGE 4-12% Bis-Tris gels (Invitrogen) and subjected to standard immunoblotting procedures. Except where noted, gels blotted for DLK were run in MOPS buffer (Invitrogen). […] Blots were visualized with chemiluminescence and exposure to film. For relative protein expression and molecular weight quantifications, blots were also visualized on a Chemidoc (Bio-Rad). Quantifications were performed in ImageLab (Bio-Rad). Protein expression was standardized to a loading control (actin or tubulin). Molecular weight was standardized to Precision Plus Protein WesternC Standards (Bio-Rad).
A stable cell line that expressed DLK in a doxicyclin-inducible fashion was used and cells were treated with two structurally distinct JNK inhibitors (FIG. 4c).

Row | Compound | apparent molecular weight / phosphorylation of DLK (DLK [1]) | total levels of DLK protein (DLK [1]) | fold change in phosphorylation of T43, okadaic-acid-treated vs untreated cells expressing DLK (murine DLK) | increase in DLK quantity with NGF withdrawal (DLK [2]) | DLK expression (levels of DLK protein) (DLK [3])
1 | CC(C)C[C@@H](C=O)NC(=O)[C@H](CC(C)C)NC(=O)[C@H](CC(C)C)NC(=O)OCc1ccccc1 [MG132] (Cbz-Leu-Leu-Leu-aldehyde) | without an increase in DLK phosphorylation | produced an increase in DLK levels |  |  | 
2 | C=C1[C@@H](O)[C@@H]2O[C@]3(CC[C@H](/C=C/[C@@H](C)[C@@H]4CC(C)=C[C@@]5(O[C@H](C[C@@](C)(O)C(=O)O)CC[C@H]5O)O4)O3)CC[C@H]2O[C@@H]1[C@@H](O)C[C@H](C)[C@H]1O[C@@]2(CCCCO2)CC[C@H]1C [okadaic acid] | sufficient to increase both the apparent molecular weight and total levels of DLK | sufficient to increase both the apparent molecular weight and total levels of DLK | 7.78 fold |  | 
3 | JNK3 siRNA: siRNA, sense 5′-ACATCGTAGTCAAGTCTGATTT-3′ (SEQ ID NO:10), antisense SEQ ID NO:11, synthesized at Genentech (sense ACATCGTAGTCAAGTCTGATTT; antisense ATCAGACTTGACTACGATGTTT; listed as DNA, chemistry not given here) |  |  |  | attenuated the increase in DLK | 
4 | JNK Inhibitor VII (TAT-TI-JIP153-163) [JNK7] |  |  |  |  | reduces DLK expression

Reference: patent US20150361184A1, “METHODS OF MODULATING DLK STABILITY” (GENENTECH, INC., priority 2013, published 2015)
